According to patent US8202862B2, “Substituted piperidines” (Bayer Intellectual Property GmbH, priority 2009, dated 2012):

Experiments:
[1] = target: T1, human protease activated receptor 1 (PAR1) (Homo sapiens, UniProt P25116); assay: Cellular functional in vitro test (PAR1 test cell, aequorin luminescence); assay type: cell-based; details: HEK293-derived PAR1 test cell; PAR1 agonist at EC50; calcium/aequorin luminescence
T1 construct: the cell stably expresses the endogenous human PAR1 receptor; endogenous in cells; host or cells: recombinant HEK293-derived cell line; only the mitochondrial aequorin is recombinant
T1 sequence (P25116 22-425): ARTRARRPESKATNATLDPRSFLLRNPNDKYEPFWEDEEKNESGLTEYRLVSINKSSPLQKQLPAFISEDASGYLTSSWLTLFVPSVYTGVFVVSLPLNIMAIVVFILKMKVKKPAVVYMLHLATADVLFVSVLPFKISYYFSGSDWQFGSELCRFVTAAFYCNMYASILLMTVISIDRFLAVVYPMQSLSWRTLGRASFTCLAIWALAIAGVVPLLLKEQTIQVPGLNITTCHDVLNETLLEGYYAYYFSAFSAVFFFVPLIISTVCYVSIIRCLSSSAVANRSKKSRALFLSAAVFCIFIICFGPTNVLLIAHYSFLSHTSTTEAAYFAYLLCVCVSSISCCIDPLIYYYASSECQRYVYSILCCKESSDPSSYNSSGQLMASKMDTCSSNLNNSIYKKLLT
Source text: Cellular Functional in vitro Test
A recombinant cell line is used to identify […] of the human protease activated receptor 1 (PAR1) and to quantify the activity of the substances described herein. The cell is originally derived from a human embryonal kidney cell (HEK293; ATCC: American Type Culture Collection, Manassas, Va. 20108, U.S.A.). The test cell line constitutively expresses a modified form of the calcium-sensitive photoprotein aequorin which, after reconstitution with the cofactor coelenterazine, emits light when the free calcium concentration in the inner mitochondrial compartment is increased (Rizzuto R, Simpson A W, Brini M, Pozzan T.; Nature 1992, 358, 325-327). Additionally, the cell stably expresses the endogenous human PAR1 receptor and the endogenous purinergic receptor P2Y2. The resulting PAR1 test cell responds to stimulation of the endogenous PAR1 or P2Y2 receptor with an intracellular release of calcium ions, which can be quantified through the resulting aequorin luminescence with a suitable luminometer (Milligan G, Marshall F, Rees S, Trends in Pharmacological Sciences 1996, 17, 235-237).
For the testing of the substance specificity, the effect thereof after activation of the endogenous PAR1 receptor is compared with the effect after activation of the endogenous purinergic P2Y2 receptor which utilizes the same intracellular signal path.
Test procedure: The cells are plated out two days (48 hours) before the test in culture medium (DMEM F12, supplemented with 10% FCS, 2 mM glutamine, 20 mM HEPES, 1.4 mM pyruvate, 0.1 mg/ml gentamycin, 0.15% sodium bicarbonate; BioWhittaker Cat. # BE04-687Q; B-4800 Verviers, Belgium) in 384-well microtitre plates and kept in a cell incubator (96% atmospheric humidity, 5% v/v CO2, 37° C.). On the day of the test, the culture medium is replaced by a Tyrode's solution (in mM: 140 sodium chloride, 5 potassium chloride, 1 magnesium chloride, 2 calcium chloride, 20 glucose, 20 HEPES), which additionally contains the cofactor coelenterazine (25 μM) and glutathione (4 mM), and the microtitre plate is then incubated for a further 3-4 hours. The test substances are then pipetted onto the microtitre plate, and 5 minutes after the transfer of the test substances into the wells of the microtitre plate the plate is transferred into the luminometer, a PAR1 agonist concentration which corresponds to EC50 is added and the resulting light signal is immediately measured in the luminometer. To distinguish an antagonist substance action from a toxic action, the endogenous purinergic receptor is immediately subsequently activated with agonist (ATP, final concentration 10 μM) and the resulting light signal is measured.

[2] = tested on: platelet-rich plasma; assay: Platelet aggregation in plasma (triggered by thrombin receptor agonist TRAP6, SFLLRN; turbidimetry according to Born); assay type: cell-based; details: 10 min, human platelet-rich plasma, 10 min at 37° C.
Procedure: 1.c) Platelet Aggregation in Plasma
Platelet aggregation is determined using blood from healthy volunteers of both genders, who had not received any thrombocyte aggregation-influencing medication for the last ten days. The blood is taken up into monovettes (Sarstedt, Nümbrecht, Germany) which contain, as anticoagulant, sodium citrate 3.8% (1 part citrate+9 parts blood). To obtain platelet-rich plasma, the citrated whole blood is centrifuged at 140 g for 20 min.
For the aggregation measurements, aliquots of the platelet-rich plasma with increasing concentrations of test substance are incubated at 37° C. for 10 min. Subsequently, aggregation is triggered by addition of a thrombin receptor agonist (TRAP6, SFLLRN) in an aggregometer and determined at 37° C. by means of the turbidimetry method according to Born (Born, G. V. R., Cross M. J., The Aggregation of Blood Platelets; J. Physiol. 1963, 168, 178-195). The SFLLRN concentration leading to maximum aggregation is, if appropriate, determined individually for each donor.
To calculate the inhibitory effect, the maximum increase in light transmission (amplitude of the aggregation curve in %) is determined within 5 minutes after addition of the agonist in the presence and absence of test substance, and the inhibition is calculated. The inhibition curves are used to calculate the concentration which inhibits aggregation by 50%.

SMILES	IC50 [1] [nM]	IC50 [2] [nM]
O=C(N1CC[S+]([O-])CC1)N1CC(c2ccc(C(F)(F)F)cc2)CC(c2nc(C3CC3)no2)C1 (racemic) [Example 20, {3-(3-Cyclopropyl-1,2,4-oxadiazol-5-yl)-5-[4-(trifluoromethyl)phenyl]piperidin-1-yl}(1-oxidothio-morpholin-4-yl)methanone]	23	–
COCCc1noc(C2CC(c3ccc(OC(F)(F)F)cc3)CN(C(=O)N3CCS(=O)(=O)CC3)C2)n1 (single isomer, unassigned) [Example 8, (1,1-Dioxidothiomorpholin-4-yl){3-[3-(2-methoxyethyl)-1,2,4-oxadiazol-5-yl]-5-[4-(trifluoromethoxy)phenyl]piperidin-1-yl}methanone]	33	0.29
CCc1ccc(C2CC(c3nc(CCOC)no3)CN(C(=O)N3CCS(=O)(=O)CC3)C2)cc1 (stereo not shown) [Example 13, (1,1-Dioxidothiomorpholin-4-yl){3-(4-ethylphenyl)-5-[3-(2-methoxyethyl)-1,2,4-oxadiazol-5-yl]-piperidin-1-yl}methanone]	–	0.17
CCOCCc1noc(C2CC(c3ccc(C(F)(F)F)cc3)CN(C(=O)N3CCS(=O)(=O)CC3)C2)n1 (single isomer, unassigned) [Example 31, (1,1-Dioxidothiomorpholin-4-yl){3-[3-(2-ethoxyethyl)-1,2,4-oxadiazol-5-yl]-5-[4-(trifluoromethyl)phenyl]piperidin-1-yl}methanone]	32	–
COCCc1noc(C2CC(c3ccc(OC(F)(F)F)cc3)CN(C(=O)N3CC[S+]([O-])CC3)C2)n1 (racemic) [Example 1, {3-[3-(2-Methoxyethyl)-1,2,4-oxadiazol-5-yl]-5-[4-(trifluoromethoxy)phenyl]piperidin-1-yl}-(oxidothiomorpholin-4-yl)methanone]	43	–
COC1(c2noc(C3CC(c4ccc(CC(F)(F)F)cc4)CN(C(=O)N4CCS(=O)(=O)CC4)C3)n2)CC1 (racemic) [Example 61, (1,1-Dioxidothiomorpholin-4-yl){3-[3-(1-methoxycyclopropyl)-1,2,4-oxadiazol-5-yl]-5-[4-(2,2,2-trifluoroethyl)phenyl]piperidin-1-yl}methanone]	15.7	–

Continued, values first:

IC50 [1] [nM]	IC50 [2] [nM]	SMILES
4.3	–	CC(F)(F)c1ccc(C2CC(c3nc(C4CC4)no3)CN(C(=O)N3CCS(=O)(=O)CC3)C2)cc1 (single isomer, unassigned) [Example 54, {3-(3-Cyclopropyl-1,2,4-oxadiazol-5-yl)-5-[4-(1,1-difluoroethyl)phenyl]piperidin-1-yl}-(1,1-dioxidothiomorpholin-4-yl)methanone]
8	0.49	O=C(N1CCS(=O)(=O)CC1)N1CC(c2ccc(OC(F)(F)F)cc2)CC(c2nc(C3CC3)no2)C1 (single isomer, unassigned) [Example 10, {3-(3-Cyclopropyl-1,2,4-oxadiazol-5-yl)-5-[4-(trifluoromethoxy)phenyl]piperidin-1-yl}(1,1-dioxidothiomorpholin-4-yl)methanone]
4.7	0.58	CC(F)(F)c1ccc(C2CC(c3nc(C4CC4)no3)CN(C(=O)N3CC[S+]([O-])CC3)C2)cc1 (single isomer, unassigned) [Example 52, {3-(3-Cyclopropyl-1,2,4-oxadiazol-5-yl)-5-[4-(1,1-difluoroethyl)phenyl]piperidin-1-yl}-(1-oxido-thiomorpholin-4-yl)methanone]
5.1	–	CCc1ccc(C2CC(c3nc(C4CC4)no3)CN(C(=O)N3CCS(=O)(=O)CC3)C2)cc1 (single isomer, unassigned) [Example 15, [3-(3-Cyclopropyl-1,2,4-oxadiazol-5-yl)-5-(4-ethylphenyl)piperidin-1-yl](1,1-dioxidothiomorpholin-4-yl)methanone]
